According to US20160137968A1, “TISSUE CULTURE TESTING SYSTEMS AND METHODS OF USE” (Barry University, priority 2014, published 2016):

Tests used:
S. aureus = assay: Bioburden reduction in infected full-thickness skin tissue samples in Franz cells (total CFUs); format: cell-based, Staphylococcus aureus; conditions: 0.1 liters/minute
From the text: (§1) After an infection period is over, tissue samples can be homogenized, and serial dilutions can be grown on LB agar plates in order to facilitate the counting of colony formation units (CFUs), which approximate the level of bacteria present in the sample after infection. Other methods of quantifying infection and the various manifestations of infection are also possible, as would be recognized by one of ordinary skill in the art based on the present disclosure. For example, activation of various cytokines can be measured, as well as gene expression (upregulation and/or down regulation) of various genetic regulators of inflammatory and immune responses taking place in cells and tissues. These experimental procedures allow for the investigation of various experimental factors and perturbations, such as NO pressures, exposure times, and flow rates, in the context of skin infection and how they may influence bioburden reduction and wound healing.
(§2) In FIG. 4, the growth curves of several pathogenic bacteria are shown, including MRSA, Acinetobacter and Pseudomonas. In order to determine whether a given set of experimental factors or perturbations relating to NO exposure reduces bioburden, tissue samples were infected with the same concentration of bacteria under the same experimental conditions. […] In some aspects, 15 μl of a bacterial culture is sufficient to infect a cell or tissue sample.
(§3) Full-thickness skin tissue samples (e.g., EPIDERM tissue model from MatTek Corp., Ashland, Mass. 01721) were exposed to various experimental factors. […] The skin samples used were infected with S. aureus for 24 hours, followed by 90 minutes of pressurized exposure at a flow rate of 0.1 liters/minute.
(§4) The samples used were infected with Staphylococcus, MRSA, Acinetobacter or Pseudomonas.
(§5) Experiments were also conducted as described above in the previous examples to determine the minimum amount of exposure time necessary to obtain maximum reductions in bioburden. In some cases, determining the minimum tissue exposure time to gNO can reduce any potentially detrimental effects on the health of the tissue, while still reducing bioburden. Flow rate was maintained at 0.1 liters/minute, but the exposure time was shortened to 60 minutes at 1 ATM (independent of and in addition to the pressure applied by the external environment).
Experiments were also conducted as described above in the previous examples to determine the minimum amount of gNO pressure necessary to obtain maximum reductions in bioburden. In some cases, determining the minimum amount of gNO pressure can reduce any potentially detrimental effects on the health of the tissue, while still reducing bioburden.

A. baumannii = assay: as above; format: cell-based; conditions: 1 ATM, 0.1 liters/minute
From the text: as §1, §2, §3, §4, §5

MRSA = assay: as above; format: cell-based; conditions: 1 ATM, 0.1 liters/minute
From the text: as §1, §2, §3, §4, §5

P. aeruginosa = assay: as above; format: cell-based; conditions: 1 ATM, 0.1 liters/minute
From the text: as §1, §2, §3, §4, §5

[1] = test system: full-thickness skin tissue samples; assay: Tissue viability using MTT assays; format: cell-based, human
Method: Experiments were also conducted to investigate the effects of various NO pressures, exposure times, and flow rates on tissue viability using MTT assays. An MTT assay is a colorimetric assay for assessing cell viability. NAD(P)H-dependent cellular oxidoreductase enzymes may, under defined conditions, reflect the number of viable cells present. These enzymes are capable of reducing the tetrazolium dye MTT 3-(4,5-dimethylthiazol-2-yl)-2,5-diphenyltetrazolium bromide to its insoluble formazan, which has a purple color. Other closely related tetrazolium dyes including XTT, MTS and the WSTs, can also be used. Tetrazolium-based dye assays can also be used to measure cytotoxicity (loss of viable cells) or cytostatic activity (shift from proliferation to quiescence) of potential medicinal agents and toxic materials.

Compound: [N]=O [gNO, Nitric Oxide]
- bioburden reduction (S. aureus; NO at 0.25 ATM, 90 minutes, infected 24 hours): sufficient to reduce bioburden
- bioburden reduction (S. aureus; NO at 0.3 ATM, 90 minutes, infected 24 hours): sufficient to reduce bioburden
- log reduction in bioburden (S. aureus; S. aureus (biofilm-forming), 1% NO, 90 min, 1 ATM, infected 24 hours): ~3 log
- reduction of bioburden compared to controls (S. aureus; S. aureus, 60 minutes, 1 ATM): did not show significant reduction of bioburden
- bacterial bioburden (CFUs) (S. aureus; Staphylococcus, 1% NO, 1 ATM, 120 minutes, 24 hours of infection): completely eliminated
- bioburden (total CFUs) (S. aureus; pressurized gNO at 1 ATM compared to 0 ATM, 90 minutes, infected 24 hours): did significantly reduce bioburden
- log reduction in bioburden (A. baumannii; A. baumannii, 1% NO, 90 min, infected 24 hours): 5-6 log
- reduction of bioburden compared to controls (A. baumannii; A. baumannii, 60 minutes): effective
- bacterial bioburden (CFUs) (A. baumannii; Acinetobacter, 1% NO, 120 minutes, 24 hours of infection): completely eliminated
- bacterial bioburden (CFUs) (MRSA; 1% NO, 120 minutes, 24 hours of infection): completely eliminated
- log reduction in bioburden (MRSA; 1% NO, 90 min, infected 24 hours): 5-6 log
- reduction of bioburden compared to controls (MRSA; 60 minutes): did not show significant reduction of bioburden
- log reduction in bioburden (P. aeruginosa; P. aeruginosa, 1% NO, 90 min, infected 24 hours): 5-6 log
- reduction of bioburden compared to controls (P. aeruginosa; P. aeruginosa, 60 minutes): effective
- bacterial bioburden (CFUs) (P. aeruginosa; Pseudomonas, 1% NO, 120 minutes, 24 hours of infection): completely eliminated
- tissue viability (MTT) ([1]; 1% NO with or without pressure, as exposure time decreased): viability increased
- tissue viability (MTT) ([1]; combination of pressurized gNO and increasing concentrations of NO): caused a decrease in viability
